Data reported in publication PMC5218480 (PLoS ONE, 2017).

Test system: MV-4-11 cells
Test: Gene expression microarray analysis (Affymetrix PrimeView) and GSEA
Format: cell-based, human
Parameters: RFU PODN (11730768_x_at) / Fold change /veh PODN (11730768_x_at) / RFU LINC00158 (11744669_a_at) / Fold change /veh LINC00158 (11744669_a_at) / RFU DUSP10 (11751237_a_at) / Fold change /veh DUSP10 (11751237_a_at) / RFU ID3 (11757404_x_at) / Fold change /veh ID3 (11757404_x_at) / RFU PLEKHG5 (11737974_s_at) / Fold change /veh PLEKHG5 (11737974_s_at) / RFU LRRC4B (11730491_at) / Fold change /veh LRRC4B (11730491_at) / RFU GIMAP4 (11747438_a_at) / Fold change /veh GIMAP4 (11747438_a_at) / RFU KRT8 (11758183_x_at) / Fold change /veh KRT8 (11758183_x_at) / RFU CNN1 (11734310_a_at) / Fold change /veh CNN1 (11734310_a_at) / RFU VPS37D (11726825_at) / Fold change /veh VPS37D (11726825_at) / RFU C10orf10 (11716522_x_at) / Fold change /veh C10orf10 (11716522_x_at) / RFU KIR2DL2 /// KIR2DL4 /// KIR2DL5A /// KIR2DL5B /// KIR2DS1 /// KIR2DS2 /// KIR2DS3 /// KIR2DS4 /// KIR3DL3 /// KIR3DL3 /// KIR3DS1 (11738374_at) / Fold change /veh KIR2DL2 /// KIR2DL4 /// KIR2DL5A /// KIR2DL5B /// KIR2DS1 /// KIR2DS2 /// KIR2DS3 /// KIR2DS4 /// KIR3DL3 /// KIR3DL3 /// KIR3DS1 (11738374_at) / RFU C1QL1 (11718748_at) / Fold change /veh C1QL1 (11718748_at) / RFU TMPRSS4 (11747572_a_at) / Fold change /veh TMPRSS4 (11747572_a_at) / RFU HAMP (11756126_x_at) / Fold change /veh HAMP (11756126_x_at) / RFU RNFT2 (11725882_a_at) / Fold change /veh RNFT2 (11725882_a_at) / RFU NR4A2 (11747474_a_at) / Fold change /veh NR4A2 (11747474_a_at) / RFU ABCC12 (11746883_a_at) / Fold change /veh ABCC12 (11746883_a_at) / RFU TMEM136 (11760407_x_at) / Fold change /veh TMEM136 (11760407_x_at) / RFU CLDN22 /// WWC2 (11732394_at) / Fold change /veh CLDN22 /// WWC2 (11732394_at) / RFU HLA-DPB1 (11760878_x_at) / Fold change /veh HLA-DPB1 (11760878_x_at) / RFU SPINT1 (11716480_a_at) / Fold change /veh SPINT1 (11716480_a_at) / RFU GAP43 (11754022_s_at) / Fold change /veh GAP43 (11754022_s_at) / RFU A4GNT (11735810_at) / Fold change /veh A4GNT (11735810_at) / RFU PRB3 (11715151_x_at) / Fold change /veh PRB3 (11715151_x_at) / RFU TUBB4B (11761932_at) / Fold change /veh TUBB4B (11761932_at) / RFU CAPN14 (11732068_a_at) / Fold change /veh CAPN14 (11732068_a_at) / RFU TMCC2 (11721928_a_at) / Fold change /veh TMCC2 (11721928_a_at) / RFU IRGQ (11745062_a_at) / Fold change /veh IRGQ (11745062_a_at) / RFU FAM174B (11720279_a_at) / Fold change /veh FAM174B (11720279_a_at) / RFU TMPRSS4 (11748680_a_at) / Fold change /veh TMPRSS4 (11748680_a_at) / RFU FAM212B (11763350_a_at) / Fold change /veh FAM212B (11763350_a_at) / RFU PLEKHG5 (11743358_a_at) / Fold change /veh PLEKHG5 (11743358_a_at) / RFU ZSCAN30 (11745921_a_at) / Fold change /veh ZSCAN30 (11745921_a_at) / RFU CMKLR1 (11741424_a_at) / Fold change /veh CMKLR1 (11741424_a_at) / RFU LOC101060620 /// MAPK8IP1 (11723275_at) / Fold change /veh LOC101060620 /// MAPK8IP1 (11723275_at) / RFU SPTSSB (11747773_x_at) / Fold change /veh SPTSSB (11747773_x_at) / RFU PRSS12 (11739890_at) / Fold change /veh PRSS12 (11739890_at) / RFU BIN1 (11741810_x_at) / Fold change /veh BIN1 (11741810_x_at) / RFU WNT11 (11732464_a_at) / Fold change /veh WNT11 (11732464_a_at) / RFU C10orf10 (11716521_a_at) / Fold change /veh C10orf10 (11716521_a_at) / RFU C5orf56 (11738089_at) / Fold change /veh C5orf56 (11738089_at) / RFU CYB561 (11721691_x_at) / Fold change /veh CYB561 (11721691_x_at) / RFU ANKRD19P (11752326_a_at) / Fold change /veh ANKRD19P (11752326_a_at) / RFU OR2T12 /// OR2T33 /// OR2T8 (11738714_s_at) / Fold change /veh OR2T12 /// OR2T33 /// OR2T8 (11738714_s_at) / RFU VCAN (11748164_a_at) / Fold change /veh VCAN (11748164_a_at) / RFU JSRP1 (11732532_at) / Fold change /veh JSRP1 (11732532_at) / RFU KRTAP10-11 (11738290_x_at) / Fold change /veh KRTAP10-11 (11738290_x_at) / RFU MYO3A (11730013_a_at) / Fold change /veh MYO3A (11730013_a_at) / RFU EBF3 (11725865_a_at) / Fold change /veh EBF3 (11725865_a_at) / RFU CAMK2N1 (11719241_x_at) / Fold change /veh CAMK2N1 (11719241_x_at) / RFU C5orf56 (11738088_a_at) / Fold change /veh C5orf56 (11738088_a_at) / RFU OLFML3 (11715873_a_at) / Fold change /veh OLFML3 (11715873_a_at) / RFU LOC100653217 /// NTM (11731650_a_at) / Fold change /veh LOC100653217 /// NTM (11731650_a_at) / RFU MAPK11 (11762145_a_at) / Fold change /veh MAPK11 (11762145_a_at) / RFU FIZ1 (11724087_x_at) / Fold change /veh FIZ1 (11724087_x_at) / RFU OASL (11726364_x_at) / Fold change /veh OASL (11726364_x_at) / RFU SOX15 (11748057_x_at) / Fold change /veh SOX15 (11748057_x_at) / RFU CD79A (11719716_a_at) / Fold change /veh CD79A (11719716_a_at) / RFU HIST1H1D (11736915_at) / Fold change /veh HIST1H1D (11736915_at) / RFU CASKIN2 (11723855_a_at) / Fold change /veh CASKIN2 (11723855_a_at) / RFU LOC730098 (11760151_x_at) / Fold change /veh LOC730098 (11760151_x_at) / RFU OR4N2 (11742367_at) / Fold change /veh OR4N2 (11742367_at) / RFU PRRT2 (11749266_a_at) / Fold change /veh PRRT2 (11749266_a_at) / RFU SNX32 (11753110_a_at) / Fold change /veh SNX32 (11753110_a_at) / RFU CDHR5 (11726645_a_at) / Fold change /veh CDHR5 (11726645_a_at) / RFU RCAN1 (11760418_a_at) / Fold change /veh RCAN1 (11760418_a_at) / RFU FAM167A (11723789_a_at) / Fold change /veh FAM167A (11723789_a_at) / RFU FAM26E (11764081_at) / Fold change /veh FAM26E (11764081_at) / RFU ISYNA1 (11749810_s_at) / Fold change /veh ISYNA1 (11749810_s_at) / RFU ACY1 (11761880_at) / Fold change /veh ACY1 (11761880_at) / RFU 11764098_at / Fold change /veh 11764098_at / RFU SAMD14 (11745864_x_at) / Fold change /veh SAMD14 (11745864_x_at) / RFU NPB (11741838_a_at) / Fold change /veh NPB (11741838_a_at) / RFU TMPRSS6 (11731388_a_at) / Fold change /veh TMPRSS6 (11731388_a_at) / RFU KRTAP10-2 (11738614_at) / Fold change /veh KRTAP10-2 (11738614_at) / RFU ARHGAP8 /// PRR5-ARHGAP8 (11727945_x_at) / Fold change /veh ARHGAP8 /// PRR5-ARHGAP8 (11727945_x_at) / RFU KRTAP5-7 /// NADSYN1 (11734609_at) / Fold change /veh KRTAP5-7 /// NADSYN1 (11734609_at) / RFU RASL12 (11751679_a_at) / Fold change /veh RASL12 (11751679_a_at) / RFU CDKN2B (11736163_a_at) / Fold change /veh CDKN2B (11736163_a_at) / RFU PRF1 (11729649_at) / Fold change /veh PRF1 (11729649_at) / RFU, ZNF638 /// ZNF638-IT1 / Fold change vs veh, ZNF638 /// ZNF638-IT1 / RFU, PANK3 / Fold change vs veh, PANK3 / RFU, SH3YL1 / Fold change vs veh, SH3YL1 / RFU, ZEB2 / Fold change vs veh, ZEB2 / RFU, NRIP1 / Fold change vs veh, NRIP1 / RFU, PTTG1IP / Fold change vs veh, PTTG1IP / RFU, CAPN2 / Fold change vs veh, CAPN2 / RFU, MED14 / Fold change vs veh, MED14 / RFU, SNORA58 / Fold change vs veh, SNORA58 / RFU, C1orf63 / Fold change vs veh, C1orf63 / RFU, LRRFIP1 / Fold change vs veh, LRRFIP1 / RFU, NDUFAF7 / Fold change vs veh, NDUFAF7 / RFU, SLC12A2 / Fold change vs veh, SLC12A2 / RFU, IBTK / Fold change vs veh, IBTK / RFU, ESF1 / Fold change vs veh, ESF1 / Fold change vs veh, TMEM50B / RFU, TAOK1 / Fold change vs veh, TAOK1 / RFU, ACBD3 / Fold change vs veh, ACBD3 / RFU, TMA16 / Fold change vs veh, TMA16 / RFU, RWDD3 / Fold change vs veh, RWDD3 / RFU, BCAT1 / Fold change vs veh, BCAT1 / RFU, EDEM3 / Fold change vs veh, EDEM3 / RFU, TMEM33 / Fold change vs veh, TMEM33 / RFU, WDR75 / Fold change vs veh, WDR75 / RFU, AHCTF1 / Fold change vs veh, AHCTF1 / RFU, TFRC / Fold change vs veh, TFRC / RFU, ZDHHC17 / Fold change vs veh, ZDHHC17 / RFU, NOM1 / Fold change vs veh, NOM1 / RFU, ARL8B / Fold change vs veh, ARL8B / RFU, ZBTB11 / Fold change vs veh, ZBTB11 / RFU, TAMM41 / Fold change vs veh, TAMM41 / RFU, KIAA1704 /// LOC100996395 / Fold change vs veh, KIAA1704 /// LOC100996395 / RFU, ING1 / Fold change vs veh, ING1 / RFU, TRMT61B / Fold change vs veh, TRMT61B / RFU, FUBP3 / Fold change vs veh, FUBP3 / RFU, TP53 / Fold change vs veh, TP53 / RFU, TNKS2 / Fold change vs veh, TNKS2 / RFU, ZFP14 / Fold change vs veh, ZFP14 / RFU, ACTR2 / Fold change vs veh, ACTR2 / RFU, PPP3R1 / Fold change vs veh, PPP3R1 / RFU, PIK3R1 / Fold change vs veh, PIK3R1 / RFU, HNRNPA1 / Fold change vs veh, HNRNPA1 / RFU, RNF170 / Fold change vs veh, RNF170 / RFU, ZNF28 / Fold change vs veh, ZNF28 / RFU, RNGTT / Fold change vs veh, RNGTT / RFU, OGT / Fold change vs veh, OGT / RFU, BRD1 / Fold change vs veh, BRD1 / RFU, MARS / Fold change vs veh, MARS / RFU, ZNF655 / Fold change vs veh, ZNF655 / RFU, FAHD1 / Fold change vs veh, FAHD1 / RFU, BDP1 / Fold change vs veh, BDP1 / RFU, LRRCC1 / Fold change vs veh, LRRCC1 / RFU, ARID1A / Fold change vs veh, ARID1A / RFU, ZNF146 / Fold change vs veh, ZNF146 / RFU, ZNF330 / Fold change vs veh, ZNF330 / RFU, GPN3 / Fold change vs veh, GPN3 / RFU, C9orf123 / Fold change vs veh, C9orf123 / RFU, N4BP2L2 / Fold change vs veh, N4BP2L2 / RFU, ARFIP1 / Fold change vs veh, ARFIP1 / RFU, FAM179B / Fold change vs veh, FAM179B / RFU, BCL10 / Fold change vs veh, BCL10 / RFU, UHRF1BP1L / Fold change vs veh, UHRF1BP1L / RFU, BET1 / Fold change vs veh, BET1 / RFU, CNOT2 / Fold change vs veh, CNOT2 / RFU, ZNF268 / Fold change vs veh, ZNF268 / Fold change vs veh, ZNF507 / RFU, DGCR2 / Fold change vs veh, DGCR2 / RFU, WDSUB1 / Fold change vs veh, WDSUB1 / Fold change vs veh, HSP90B1 /// MIR3652 / RFU, ADSS / Fold change vs veh, ADSS / RFU, GK / Fold change vs veh, GK / RFU, ZNF148 / Fold change vs veh, ZNF148 / RFU, TAF9 / Fold change vs veh, TAF9 / RFU, SLC1A5 / Fold change vs veh, SLC1A5 / RFU, SLMO2 / Fold change vs veh, SLMO2 / RFU, ABCC4 / Fold change vs veh, ABCC4 / RFU, LOC101060439 /// RAP1B / Fold change vs veh, LOC101060439 /// RAP1B / RFU, RFX7 / Fold change vs veh, RFX7 / RFU, GTPBP10 / Fold change vs veh, GTPBP10 / RFU, CNEP1R1 / Fold change vs veh, CNEP1R1 / RFU, BIVM-ERCC5 /// ERCC5 / Fold change vs veh, BIVM-ERCC5 /// ERCC5 / RFU, ILF3 / Fold change vs veh, ILF3 / RFU 11762660_at / Fold change /veh 11762660_at / RFU VCAN (11757783_s_at) / Fold change /veh VCAN (11757783_s_at) / RFU DDX43 (11728927_at) / Fold change /veh DDX43 (11728927_at) / RFU KRT8 (11758188_x_at) / Fold change /veh KRT8 (11758188_x_at) / RFU NKD1 (11759106_at) / Fold change /veh NKD1 (11759106_at) / RFU SRD5A1 (11742802_a_at) / Fold change /veh SRD5A1 (11742802_a_at) / RFU TPSAB1 /// TPSB2 (11721975_s_at) / Fold change /veh TPSAB1 /// TPSB2 (11721975_s_at) / RFU GSTM3 (11746129_a_at) / Fold change /veh GSTM3 (11746129_a_at) / RFU IL23R (11737362_x_at) / Fold change /veh IL23R (11737362_x_at) / RFU TMEM51 (11727254_a_at) / Fold change /veh TMEM51 (11727254_a_at) / RFU PIWIL2 (11732686_x_at) / Fold change /veh PIWIL2 (11732686_x_at) / RFU ORM1 (11744905_x_at) / Fold change /veh ORM1 (11744905_x_at) / RFU CCDC152 (11743942_at) / Fold change /veh CCDC152 (11743942_at) / RFU ECM1 (11717891_a_at) / Fold change /veh ECM1 (11717891_a_at) / RFU IL23R (11748794_a_at) / Fold change /veh IL23R (11748794_a_at) / RFU TNFAIP8L3 (11732012_x_at) / Fold change /veh TNFAIP8L3 (11732012_x_at) / RFU MBOAT4 (11741988_at) / Fold change /veh MBOAT4 (11741988_at) / RFU 11764193_at / Fold change /veh 11764193_at / RFU TMEM53 (11763286_at) / Fold change /veh TMEM53 (11763286_at) / RFU MAGEB2 (11727129_at) / Fold change /veh MAGEB2 (11727129_at) / RFU TMEM200A (11744735_a_at) / Fold change /veh TMEM200A (11744735_a_at) / RFU CCDC152 (11751479_a_at) / Fold change /veh CCDC152 (11751479_a_at) / RFU FAM211A (11726209_a_at) / Fold change /veh FAM211A (11726209_a_at) / RFU RGS16 (11746705_a_at) / Fold change /veh RGS16 (11746705_a_at) / RFU VCAN (11755009_s_at) / Fold change /veh VCAN (11755009_s_at) / RFU RHOB (11743442_s_at) / Fold change /veh RHOB (11743442_s_at) / RFU RGS16 (11720943_a_at) / Fold change /veh RGS16 (11720943_a_at) / RFU RGS16 (11720944_at) / Fold change /veh RGS16 (11720944_at) / RFU, VPS4B / Fold change vs veh, VPS4B / RFU, CREB1 / Fold change vs veh, CREB1 / RFU, DNAJC13 / Fold change vs veh, DNAJC13 / RFU, GNAQ / Fold change vs veh, GNAQ / RFU, CDK5R1 / Fold change vs veh, CDK5R1 / RFU, ZRANB3 / Fold change vs veh, ZRANB3 / RFU, CUL4A / Fold change vs veh, CUL4A / RFU, CCNY / Fold change vs veh, CCNY / RFU, UFL1 / Fold change vs veh, UFL1 / RFU, COG3 / Fold change vs veh, COG3 / RFU, DIAPH2 / Fold change vs veh, DIAPH2 / RFU, SKA2 / Fold change vs veh, SKA2 / RFU, AFF3 / Fold change vs veh, AFF3 / RFU, LMF1 / Fold change vs veh, LMF1 / RFU, IPO11 / Fold change vs veh, IPO11 / RFU, DFFB / Fold change vs veh, DFFB / RFU, FOXP1 / Fold change vs veh, FOXP1 / RFU, CARD8 / Fold change vs veh, CARD8 / RFU, STRN3 / Fold change vs veh, STRN3 / RFU, ADK / Fold change vs veh, ADK / RFU, RASSF2 / Fold change vs veh, RASSF2 / RFU, WIPF1 / Fold change vs veh, WIPF1 / RFU, LARP1B / Fold change vs veh, LARP1B / RFU, RASA1 / Fold change vs veh, RASA1 / RFU, RB1 / Fold change vs veh, RB1 / RFU, PPFIA1 / Fold change vs veh, PPFIA1 / RFU, MAT2A / Fold change vs veh, MAT2A / RFU, CCT5 / Fold change vs veh, CCT5 / RFU, WDR92 / Fold change vs veh, WDR92 / RFU, CUX1 / Fold change vs veh, CUX1 / RFU, TTC7A / Fold change vs veh, TTC7A / RFU, TMEM135 / Fold change vs veh, TMEM135 / RFU, DEPTOR / Fold change vs veh, DEPTOR / RFU, CPM / Fold change vs veh, CPM / RFU, DNAJB6 / Fold change vs veh, DNAJB6 / RFU, CACNA2D3 / Fold change vs veh, CACNA2D3 / RFU, DTX4 / Fold change vs veh, DTX4 / RFU, TFCP2 / Fold change vs veh, TFCP2 / RFU, GMCL1 /// GMCL1P1 / Fold change vs veh, GMCL1 /// GMCL1P1 / RFU, AEBP2 / Fold change vs veh, AEBP2 / RFU, SNHG1 /// SNORD22 /// SNORD25 /// SNORD26 /// SNORD27 /// SNORD28 /// SNORD29 /// SNORD31 / Fold change vs veh, SNHG1 /// SNORD22 /// SNORD25 /// SNORD26 /// SNORD27 /// SNORD28 /// SNORD29 /// SNORD31 / Fold change (Aza/veh), C12orf56 (ProbeSet 11735607_a_at) / Fold change (ACY-1035/veh), C12orf56 (ProbeSet 11735607_a_at) / Fold change (Aza/veh), FGFR1OP (ProbeSet 11751329_s_at) / Fold change (ACY-1035/veh), FGFR1OP (ProbeSet 11751329_s_at) / Fold change (Aza/veh), VPS36 (ProbeSet 11739960_a_at) / Fold change (ACY-1035/veh), VPS36 (ProbeSet 11739960_a_at) / RFU SYPL1 (11715823_x_at) / Fold change /veh SYPL1 (11715823_x_at) / RFU IGFBP7 (11715501_s_at) / Fold change /veh IGFBP7 (11715501_s_at) / RFU REEP3 (11722064_at) / Fold change /veh REEP3 (11722064_at) / RFU IGLL1 (11728026_x_at) / Fold change /veh IGLL1 (11728026_x_at): dose or concentration left out as unconfirmed
Conditions: MV-4-11 cells, 48 hours

**Q.** For `Nc1ncn([C@@H]2O[C@H](CO)[C@@H](O)[C@H]2O)c(=O)n1` [azacitidine], which “Fold change /veh RGS16 (11720943_a_at)” value is on record?
**A.** Its value is 1.45.
